Data as given in patent publication US9708314B2, “Heterocyclic amide compound” (NISSAN CHEMICAL INDUSTRIES, LTD., priority 2013, dated 2017).

Experiments:
Assay type in all cases: in vivo
[1] = system: Echinochloa oryzacola Vasing.; experiment: Test Example 1: herbicidal activity, application before weed generation in submerged conditions; settings: Seventeenth Table; for A (Echinochloa oryzicola Vasing.) herbicidal ratio grade: application herbicide amount 320 g/ha
Summary of the method: (§1)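 Pre-emergence application to water surface of submerged pots (4 cm depth, alluvial soil) on sowing day, with 2.5-leaf rice transplanted; emulsion diluted to g/ha rates. Grown in greenhouse at 25–30 °C; 0–5 herbicidal/crop-effect score after three weeks.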

Monochoria vaginalis = experiment: as above; settings: Seventeenth Table; for C (Monochoria vaginalis) herbicidal ratio grade: application herbicide amount 320 g/ha
Summary of the method: as §1

Scirpus juncoides = experiment: as above; settings: Seventeenth Table; for B (Scirpus juncoides) herbicidal ratio grade: application herbicide amount 320 g/ha
Summary of the method: as §1

[2] = system: transplanted Oryza sativa; experiment: Test Example 1: effect on crop, application before weed generation in submerged conditions; settings: Seventeenth Table; for a (transplanted Oryza sativa) effect on crop grade: application herbicide amount 320 g/ha
Summary of the method: as §1

Leptochloa chinensis = experiment: Test Example 3: herbicidal effect by application to foliage (Wagner pot, water depth 0.1-0.5 cm); settings: Nineteenth Table; application to foliage; application herbicide amount 320 g/ha
Summary of the method: (§2)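 Foliar spray, 14-day-old plants, emulsion diluted to target g/ha; rated 3 wk post-application, 0–5 scale (0 ≤5%, 5 ≥90% herbicidal ratio). Greenhouse 25–30 °C, alluvial soil.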

[3] = system: Echinochloa crus-galli var. crus-galli; experiment: as above; settings: Nineteenth Table; application to foliage; application herbicide amount 320 g/ha
Summary of the method: as §2

[4] = system: directly sowed Oryza sativa; experiment: Test Example 3: effect on crop by application to foliage (Wagner pot, water depth 0.1-0.5 cm); settings: Nineteenth Table; application to foliage; application herbicide amount 320 g/ha
Summary of the method: as §2

[5] = Application herbicide amount 320 g/ha

SMILES	A: Echinochloa oryzicola Vasing. (herbicidal effect grade) [1, 5]	C: Monochoria vaginalis (herbicidal effect grade) (Monochoria vaginalis; [5])	B: Scirpus juncoides (herbicidal effect grade) (Scirpus juncoides; [5])	a: transplanted Oryza sativa (effect on crop grade) [2, 5]	D (herbicidal effect grade) (Leptochloa chinensis)	H (herbicidal effect grade) [3]	b (effect on crop grade) [4]	A (Echinochloa oryzicola Vasing.) herbicidal ratio grade [1]	C (Monochoria vaginalis) herbicidal ratio grade (Monochoria vaginalis)	B (Scirpus juncoides) herbicidal ratio grade (Scirpus juncoides)	a (transplanted Oryza sativa) effect on crop grade [2]
C=CCN(C)c1nnc2c(C(=O)Nc3nnco3)ccc(C(F)(F)F)n12 [1-172]	5 (Herbicidal ratio of 90% or more (almost completely withered))	3 (Herbicidal ratio of 40% or more and less than 70%)	4 (Herbicidal ratio of 70% or more and less than 90%)	1 (Herbicidal ratio of 5% or more and less than 20%)	5 (Herbicidal ratio of 90% or more (almost completely withered))	5 (Herbicidal ratio of 90% or more (almost completely withered))	3 (Herbicidal ratio of 40% or more and less than 70%)	–	–	–	–
COc1ccc(N(C)c2nnc3c(C(=O)Nc4nnnn4C)ccc(C(F)(F)F)n23)cc1 [2-099]	–	–	–	–	5 (Herbicidal ratio of 90% or more (almost completely withered))	5 (Herbicidal ratio of 90% or more (almost completely withered))	4 (Herbicidal ratio of 70% or more and less than 90%)	5 (Herbicidal ratio of 90% or more (almost completely withered))	5 (Herbicidal ratio of 90% or more (almost completely withered))	4 (Herbicidal ratio of 70% or more and less than 90%)	4 (Herbicidal ratio of 70% or more and less than 90%)
C=CCN(C)c1nnc2c(C(=O)Nc3nnnn3C)ccc(C(F)(F)F)n12 [2-100]	–	–	–	–	5 (Herbicidal ratio of 90% or more (almost completely withered))	5 (Herbicidal ratio of 90% or more (almost completely withered))	3 (Herbicidal ratio of 40% or more and less than 70%)	5 (Herbicidal ratio of 90% or more (almost completely withered))	5 (Herbicidal ratio of 90% or more (almost completely withered))	5 (Herbicidal ratio of 90% or more (almost completely withered))	3 (Herbicidal ratio of 40% or more and less than 70%)
COCCSc1nnc2c(C(=O)Nc3nnnn3C)ccc(C(F)(F)F)n12 [2-101]	–	–	–	–	5 (Herbicidal ratio of 90% or more (almost completely withered))	5 (Herbicidal ratio of 90% or more (almost completely withered))	4 (Herbicidal ratio of 70% or more and less than 90%)	5 (Herbicidal ratio of 90% or more (almost completely withered))	5 (Herbicidal ratio of 90% or more (almost completely withered))	5 (Herbicidal ratio of 90% or more (almost completely withered))	3 (Herbicidal ratio of 40% or more and less than 70%)
C=CCSc1nnc2c(C(=O)Nc3nnnn3C)ccc(C(F)(F)F)n12 [2-102]	–	–	–	–	4 (Herbicidal ratio of 70% or more and less than 90%)	5 (Herbicidal ratio of 90% or more (almost completely withered))	1 (Herbicidal ratio of 5% or more and less than 20%)	5 (Herbicidal ratio of 90% or more (almost completely withered))	4 (Herbicidal ratio of 70% or more and less than 90%)	5 (Herbicidal ratio of 90% or more (almost completely withered))	1 (Herbicidal ratio of 5% or more and less than 20%)
C#CCSc1nnc2c(C(=O)Nc3nnnn3C)ccc(C(F)(F)F)n12 [2-103]	–	–	–	–	5 (Herbicidal ratio of 90% or more (almost completely withered))	5 (Herbicidal ratio of 90% or more (almost completely withered))	1 (Herbicidal ratio of 5% or more and less than 20%)	5 (Herbicidal ratio of 90% or more (almost completely withered))	5 (Herbicidal ratio of 90% or more (almost completely withered))	4 (Herbicidal ratio of 70% or more and less than 90%)	3 (Herbicidal ratio of 40% or more and less than 70%)
CC#Cc1nnc2c(C(=O)Nc3nnnn3C)ccc(C(F)(F)F)n12 [2-106]	–	–	–	–	2 (Herbicidal ratio of 20% or more and less than 40%)	1 (Herbicidal ratio of 5% or more and less than 20%)	0 (Herbicidal ratio of 5% or less (almost no effect))	5 (Herbicidal ratio of 90% or more (almost completely withered))	4 (Herbicidal ratio of 70% or more and less than 90%)	3 (Herbicidal ratio of 40% or more and less than 70%)	2 (Herbicidal ratio of 20% or more and less than 40%)
CC(=O)OCc1nnc2c(C(=O)Nc3nnnn3C)ccc(C(F)(F)F)n12 [2-107]	–	–	–	–	5 (Herbicidal ratio of 90% or more (almost completely withered))	4 (Herbicidal ratio of 70% or more and less than 90%)	4 (Herbicidal ratio of 70% or more and less than 90%)	2 (Herbicidal ratio of 20% or more and less than 40%)	2 (Herbicidal ratio of 20% or more and less than 40%)	3 (Herbicidal ratio of 40% or more and less than 70%)	1 (Herbicidal ratio of 5% or more and less than 20%)
Cn1nnnc1NC(=O)c1ccc(C(F)(F)F)n2c(CO)nnc12 [2-108]	–	–	–	–	5 (Herbicidal ratio of 90% or more (almost completely withered))	4 (Herbicidal ratio of 70% or more and less than 90%)	4 (Herbicidal ratio of 70% or more and less than 90%)	4 (Herbicidal ratio of 70% or more and less than 90%)	2 (Herbicidal ratio of 20% or more and less than 40%)	3 (Herbicidal ratio of 40% or more and less than 70%)	0 (Herbicidal ratio of 5% or less (almost no effect))
Cn1nnnc1NC(=O)c1ccc(C(F)(F)F)n2c(C3(C)CC3(Cl)Cl)nnc12 (stereo not shown) [2-110]	–	–	–	–	5 (Herbicidal ratio of 90% or more (almost completely withered))	5 (Herbicidal ratio of 90% or more (almost completely withered))	3 (Herbicidal ratio of 40% or more and less than 70%)	5 (Herbicidal ratio of 90% or more (almost completely withered))	5 (Herbicidal ratio of 90% or more (almost completely withered))	5 (Herbicidal ratio of 90% or more (almost completely withered))	4 (Herbicidal ratio of 70% or more and less than 90%)
